Experiment in all cases: relative viability (nuclei count vs DMSO), 5 days (fraction); higher = more cells survive
Compound in assay [1]: COc1cc2c(Oc3ccc4[nH]c(C)cc4c3F)ncnc2cc1OCCCN1CCCC1 [Cediranib] + CC(=O)Nc1cccc(-n2c(=O)n(C3CC3)c(=O)c3c(Nc4ccc(I)cc4F)n(C)c(=O)c(C)c32)c1 [Trametinib] (partner 0.02 µM)
The essentials:
(§1)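 A single step with final 0.05% Triton X-100, 1% formaldehyde and 1 ug/ml Hoechst fixed the cells and stained nuclei 5 days after treatment. Lung cancer cell lines in 1536-well plates had been treated by pin tool the day after seeding with one drug alone or a fixed anchor-drug dose plus five library-drug doses (not always all listed) in √10 steps, and nuclei were counted on 4× images. Relative viability is the ratio of nuclei in treated wells to nuclei in vehicle wells, taken as the median of duplicate plates.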

Compound in assay [2]: Nc1ncn([C@H]2C[C@H](O)[C@@H](CO)O2)c(=O)n1 [Decitabine] + C[C@]1(O)C[C@@H](c2nc(-c3ccc4ccc(-c5ccccc5)nc4c3)c3c(N)nccn32)C1 [Linsitinib] (partner 1 µM)
The essentials:
as §1

Compound in assay [3]: COc1cc2c(Oc3ccc4[nH]c(C)cc4c3F)ncnc2cc1OCCCN1CCCC1 [Cediranib] + Cc1nc(Nc2ncc(C(=O)Nc3c(C)cccc3Cl)s2)cc(N2CCN(CCO)CC2)n1 [Dasatinib] (partner 0.075 µM)
The essentials:
as §1

Compound in assay [4]: Nc1ncn([C@H]2C[C@H](O)[C@@H](CO)O2)c(=O)n1 [Decitabine] + Cc1nc(Nc2ncc(C(=O)Nc3c(C)cccc3Cl)s2)cc(N2CCN(CCO)CC2)n1 [Dasatinib] (partner 0.075 µM)
The essentials:
as §1

In the case of PC-3 [JPC-3], the relative viability in assay [1] (first compound 0.04 µM) stood at 0.69; in assay [1] (first compound 0.4 µM) it was 0.681; in assay [1] (first compound 1.265 µM), 0.708; in assay [1] (first compound 4 µM), 0.662; in assay [2] (first compound 0.1265 µM), 0.8; in assay [2] (first compound 0.4 µM), 0.676. In addition, the relative viability in assay [2] (first compound 1.265 µM) worked out at 0.64; in assay [2] (first compound 4 µM), 0.607; in assay [3] (first compound 0.04 µM), 1.09; in assay [3] (first compound 0.1265 µM), 1.1; in assay [3] (first compound 0.4 µM) it was 0.966; in assay [3] (first compound 1.265 µM), 1.04. The relative viability is 0.909 in assay [3] (first compound 4 µM); 0.628 in assay [4] (first compound 0.04 µM); 0.782 in assay [4] (first compound 0.1265 µM); 0.565 in assay [4] (first compound 0.4 µM); 0.437 in assay [4] (first compound 1.265 µM); 0.399 in assay [4] (first compound 4 µM).
With PC-14, the relative viability amounted to 0.862 in assay [1] (first compound 0.04 µM); 0.664 in assay [1] (first compound 0.1265 µM); 0.66 in assay [1] (first compound 0.4 µM); 0.582 in assay [1] (first compound 1.265 µM); 0.519 in assay [1] (first compound 4 µM); 0.784 in assay [2] (first compound 0.1265 µM). For the same cell line, the relative viability turned out to be 0.268 in assay [2] (first compound 0.4 µM); 0.283 in assay [2] (first compound 1.265 µM); 0.23 in assay [2] (first compound 4 µM); 0.235 in assay [3] (first compound 0.04 µM); 0.27 in assay [3] (first compound 0.1265 µM); 0.243 in assay [3] (first compound 0.4 µM). Also, the relative viability in assay [3] (first compound 1.265 µM) is 0.224; in assay [3] (first compound 4 µM), 0.0965; in assay [4] (first compound 0.04 µM) it was 0.0322; in assay [4] (first compound 0.1265 µM), 0.142; in assay [4] (first compound 0.4 µM), 0.0565; in assay [4] (first compound 1.265 µM) it was 0.0706. Moreover, in assay [4] (first compound 4 µM), the relative viability was determined as 0.0858.
Take RERF-LC-KJ: the relative viability in assay [1] (first compound 0.04 µM) turned out to be 0.875; in assay [1] (first compound 0.1265 µM) it was 0.902; in assay [1] (first compound 0.4 µM), 0.839; in assay [1] (first compound 1.265 µM) it was 0.762; in assay [1] (first compound 4 µM) it was 0.985; in assay [2] (first compound 0.04 µM), 0.836. Further, the relative viability in assay [2] (first compound 0.1265 µM) worked out at 0.763; in assay [2] (first compound 0.4 µM) it was 0.239; in assay [2] (first compound 1.265 µM) it was 0.677; in assay [2] (first compound 4 µM), 0.637; in assay [3] (first compound 0.04 µM) it was 0.823; in assay [3] (first compound 0.1265 µM), 0.695. Also, the relative viability in assay [3] (first compound 0.4 µM) is 0.842; in assay [3] (first compound 1.265 µM), 0.834; in assay [3] (first compound 4 µM), 0.838; in assay [4] (first compound 0.04 µM), 0.703; in assay [4] (first compound 0.1265 µM), 0.741; in assay [4] (first compound 1.265 µM) it was 0.465. Also, in assay [4] (first compound 4 µM), the relative viability was determined as 0.485.
With SK-LU-1, the relative viability was 0.547 in assay [1] (first compound 0.04 µM); 0.377 in assay [1] (first compound 0.1265 µM); 0.445 in assay [1] (first compound 0.4 µM); 0.381 in assay [1] (first compound 1.265 µM); 0.481 in assay [1] (first compound 4 µM); 0.76 in assay [2] (first compound 0.04 µM). Further, the relative viability in assay [2] (first compound 0.1265 µM) is 0.744; in assay [2] (first compound 0.4 µM) it was 0.487; in assay [2] (first compound 1.265 µM) it was 0.545; in assay [2] (first compound 4 µM) it was 0.45; in assay [3] (first compound 0.04 µM) it was 0.184; in assay [3] (first compound 0.1265 µM), 0.244. In addition, the relative viability in assay [3] (first compound 0.4 µM) came to 0.175; in assay [3] (first compound 1.265 µM), 0.175; in assay [3] (first compound 4 µM) it was 0.202; in assay [4] (first compound 0.04 µM) it was 0.188; in assay [4] (first compound 0.1265 µM), 0.166; in assay [4] (first compound 0.4 µM), 0.173. For the same cell line, the relative viability in assay [4] (first compound 1.265 µM) is 0.154; in assay [4] (first compound 4 µM), 0.185.
As for SK-MES-1, the relative viability in assay [1] (first compound 0.04 µM) is 0.606; in assay [1] (first compound 0.1265 µM), 0.553; in assay [1] (first compound 0.4 µM) it was 0.52; in assay [1] (first compound 1.265 µM) it was 0.527; in assay [1] (first compound 4 µM) it was 0.562; in assay [2] (first compound 0.04 µM) it was 0.928. The relative viability was determined as 0.845 in assay [2] (first compound 0.1265 µM); 0.554 in assay [2] (first compound 0.4 µM); 0.437 in assay [2] (first compound 1.265 µM); 0.339 in assay [2] (first compound 4 µM); 0.37 in assay [3] (first compound 0.04 µM); 0.47 in assay [3] (first compound 0.1265 µM). In addition, the relative viability in assay [3] (first compound 0.4 µM) was 0.413; in assay [3] (first compound 1.265 µM), 0.427; in assay [3] (first compound 4 µM) it was 0.252; in assay [4] (first compound 0.04 µM), 0.333; in assay [4] (first compound 0.1265 µM) it was 0.234; in assay [4] (first compound 0.4 µM), 0.161. Besides, the relative viability in assay [4] (first compound 1.265 µM) is 0.135; in assay [4] (first compound 4 µM) it was 0.158.
Turning to SW 1573, the relative viability in assay [1] (first compound 0.04 µM) was found to be 0.667; in assay [1] (first compound 0.1265 µM), 0.624; in assay [1] (first compound 0.4 µM), 0.57; in assay [1] (first compound 1.265 µM) it was 0.55; in assay [1] (first compound 4 µM) it was 0.496; in assay [2] (first compound 0.04 µM), 0.666. Also, the relative viability in assay [2] (first compound 0.1265 µM) was 0.793; in assay [2] (first compound 0.4 µM) it was 0.697; in assay [2] (first compound 1.265 µM), 0.408; in assay [2] (first compound 4 µM) it was 0.392; in assay [3] (first compound 0.04 µM), 0.646; in assay [3] (first compound 0.1265 µM), 0.661. Further, the relative viability was found to be 0.43 in assay [3] (first compound 0.4 µM); 0.389 in assay [3] (first compound 1.265 µM); 0.524 in assay [3] (first compound 4 µM); 0.458 in assay [4] (first compound 0.04 µM); 0.433 in assay [4] (first compound 0.1265 µM); 0.416 in assay [4] (first compound 0.4 µM). In addition, the results for the relative viability in assay [4] (first compound 1.265 µM) and in assay [4] (first compound 4 µM) were 0.153 and 0.163, respectively.

The record behind these values is the supplement of paper PMC10307832.
